Experimental data reported in PMC8333053, “Synthesis and biological screening of new thiadiazolopyrimidine-based polycyclic compounds” (Scientific Reports, 2021).
Converted amounts (≈) assume the structure as drawn.

What was measured:
DNA = test: Bleomycin-dependent DNA damage; format: biochemical; conditions: test sample 0.1 mg/mL, λ = 532 nm; mean of three replicates ± SD; ascorbic acid 0.24 mM
Text: Bleomycin-dependent DNA damage. The prepared polycyclic thiadiazolopyrimidine-based compounds were examined through the bleomycin-dependant DNA damage, and the results were compared to that of ascorbic acid as a positive control. The obtained data reflected the ability of these derivatives to protect the DNA from damage. The capability of compounds 16a–b and 17a–b to manifest the best protective effect against DNA damage was indicated by the corresponding absorbance values ranging from 0.031 to 0.053 (Table 4)[35],[36].
Bleomycin-dependent DNA damage experiment: To a mixture of 0.5 mg / mL of DNA, 5 mM magnesium chloride, 50 mM ferric chloride and 0.05 mg / mL bleomycin sulfate was prepared. The test sample was prepared at a concentration of 0.1 mg / mL and added to the mixture. After incubation of the mixture for one hour at 37 °C, 0.05 mL of EDTA (0.1 M) was added to terminate the reaction. In the next step, 0.5 mL of TBA (1% w / v) and 0.5 mL of HCl (25% v / v) were added for colour development and the mixture was heated for 10 minutes at 80 °C. The mixture was centrifuged and the absorbance expressed, the amount of damage to the DNA was measured at λ = 532 nm. L-Ascorbic acid (0.24 mM) was used as a positive control.

Candida albicans = test: Antifungal MIC, two-fold serial dilution; format: cell-based; conditions: Fungi, glucose minimal medium, 30°C, 48 h, visual (no turbidity)
Description: (§1) The antimicrobial activity of the synthesized thiadiazolopyrimidine compounds was studied toward diverse pathogenic strains, such as gram-positive bacteria (Staphylococcus aureus ATCC 29213 and Bacillus cereus UW85), gram-negative bacteria (Escherichia coli ATCC 12435 and Pseudomonas aeruginosa ATCC 29260), and fungi (Candida albicans and Aspergillus fumigatus 293). The assessment was performed through the two-fold dilution technique using Ampicillin (antibacterial) and Fluconazole (antifungal) as the reference drugs[28],[29]. The minimal inhibitory concentration (MICs, µg/mL) of the synthesized derivatives for prohibiting microbial growth was determined through the visual detection (no turbidity) technique.
(§2) The synthesized thiadiazolopyrimidine-based compounds were evaluated and adopted for antibacterial and antifungal effectiveness using the approved procedure[38],[39].
(§3) Minimal inhibitory concentrations (MICs) were determined by serial dilution technique using 96-multiwell microtiter plates. The investigated compounds were dissolved in DMSO 100% to prepare stock solutions of 5000 µg/mL. Two-fold serial dilutions of the dissolved compounds were performed in glucose minimal medium providing eight different concentrations (1250, 625, 312.5, 156, 78, 39, 19.5 µg/mL). The microorganisms were diluted to 1 ×10^3 SFU/mL in glucose minimal medium, and 20 µL of the diluted culture was added to the test solutions (50 µL) in the wells (one well per concentration). The plates were incubated at 30°C for 48 h. MIC was detected visually as the least concentration inhibiting fungal growth (no turbidity) and the activity of the tested compounds was estimated in comparison to fluconazole.

[1] = test system: Aspergillus fumigatus 293; test: Antifungal MIC, two-fold serial dilution; format: cell-based; conditions: Fungi, glucose minimal medium, 30°C, 48 h, visual (no turbidity)
Description: as §1, §2, §3

Hep-2 = test: MTT cytotoxicity assay; format: cell-based; conditions: Homo sapiens, HEp-2, 72 h, 3 days
Description: (§4) The cytotoxicity of the prepared tri-and tetra-cyclic thiadiazolopyrimidine compounds were examined toward various cancer cell lines, such as liver and breast cancer (MCF-7), prostate cancer (PC3), laryngeal carcinoma (Hep-2), carcinoma (HepG2), and standard normal fibroblast cells (WI38) using the MTT assay[33] at the National Research Centre (Egypt). The cytotoxicity (Table 3) toward 50% inhibition of the cell viability (IC50 values) was assessed using 5-fluorouracil (5-Fu) as the standard anticancer drug.
(§5) The synthesized compounds were subjected to the MTT cytotoxicity assay on the basis of the cited literature.
(§6) MTT cytotoxicity assay: The technical method of MTT assay depends on the reduction of yellow 3-(4,5-methyl-2-thiazolyl)-2,5-diphenyl-2H-tetrazolium bromide (MTT) into purple formazan product, mainly by mitochondrial reductase activity inside the living cells. The cells used in cytotoxicity assay were cultured in RPMI 1640 medium supplemented with 10% fetal calf serum. Cells suspended in the medium (2×10^4 cells/mL) were plated in 96-well culture plates and incubated at 37 °C in a 5% CO2 incubator for 12 hours. The tested sample (2 μL) was added to the cells (2×10^4) in 96-well plates and cultured at 37 °C for 3 days. The cultured cells were mixed with 20 μL of MTT solution and incubated for 4 hours at 37 °C. The supernatant was carefully removed from each well, the formazan crystals were dissolved after addition of DMSO (100 μL) for each well to form the cellular reduction of MTT. After mixing with a mechanical plate mixer, the absorbance of each well was measured by a microplate reader using a test wavelength of 570 nm. The results were expressed as the IC50 values, which inducing 50% inhibition of cell growth of the treated cells when compared to the growth of control cells.

MCF-7 = test: MTT cytotoxicity assay; format: cell-based; conditions: Homo sapiens, MCF7, 72 h, 3 days
Description: as §4, §5, §6

PC3 = test: MTT cytotoxicity assay; format: cell-based; conditions: Homo sapiens, PC-3, 72 h, 3 days
Description: as §4, §5, §6

HepG2 = test: MTT cytotoxicity assay; format: cell-based; conditions: Homo sapiens, HepG2, 72 h, 3 days
Description: as §4, §5, §6

[2] = MTT cytotoxicity assay on normal cells; format: cell-based; conditions: human, WI38 normal fibroblast cells
Description: as §4, §5, §6

SMILES | Absorbance (bleomycin-dependent DNA damage) (DNA) | MIC (Candida albicans) [µg/mL] | MIC [1] [µg/mL] | IC50 (Hep-2) [µM] | IC50 (MCF-7) [µM] | IC50 (PC3) [µM] | IC50 (HepG2) [µM] | IC50 at 3 days [2] [µM] | melting point [°C]
N#CC1=C(c2ccccc2)OC(N)=C2C(=O)N=C3SC=NN3C12 (stereo not shown) [Compound 9b, 6-Amino-9-cyano-5-oxo-8-phenyl-5H,9aH-pyrano[3,4-e][1,3,4]thiadiazolo[3,2-a]pyrimidine] | 0.083 ± 0.08 | 312 (≈ 0.966 mM) | > 1250 | 11.7 ± 0.36 | 12.8 ± 0.26 | 38.4 ± 0.89 | 26.78 ± 0.18 | 48.2 ± 1.47 | 258 to 260
Nc1n[nH]c2c1c(=O)nc1scnn12 [Compound 4, 3-Aminopyrazolo[4,3-e][1,3,4]thiadiazolo[3,2-a]pyrimidin-4(1H)-one] | 0.165 ± 0.19 | > 1250 | > 1250 | 78.4 ± 2.2 | 61.2 ± 1.11 | 72.3 ± 2.18 | 15.4 ± 0.45 | 9.35 ± 0.21 | 281 to 282
COc1ccc(N=Nc2c(O)nn3c(N)c4c(=O)nc5scnn5c4nc23)cc1 [Compound 17b, 6-Amino-9-hydroxy-10-(4-methoxyphenylazo)-5H-pyrazolo[1′,5′:1,2]pyrimido[5,4-e][1,3,4]thiadiazolo[3,2-a]pyrimidin-5-one] | 0.042 ± 0.03 | 1250 (≈ 3.05 mM) | 1250 (≈ 3.05 mM) | 19 ± 0.4 | 8.84 ± 0.17 | 36.8 ± 0.43 | 33.54 ± 0.25 | 58.4 ± 2.29 | 280 to 281
Nc1c2c(=O)nc3scnn3c2nc2nnnn12 [Compound 11, 6-Amino-5H-[1,3,4]thiadiazolo[2′,3′:2,3]pyrimido[4,5-d]tetrazolo[1,5-a]pyrimidin-5-one] | 0.113 ± 0.16 | 1250 (≈ 4.79 mM) | > 1250 | 38.8 ± 0.74 | 31.8 ± 0.67 | 38.1 ± 0.49 | 42.2 ± 1.17 | 20.2 ± 0.39 | 274 to 275
Cc1ccc(N=Nc2c(N)nn3c(N)c4c(=O)nc5scnn5c4nc23)cc1 [Compound 16a, 6,9-Diamino-10-(4-methylphenylazo)-5H-pyrazolo[1′,5′:1,2]pyrimido[5,4-e][1,3,4]thiadiazolo[3,2-a]pyrimidin-5-one] | 0.039 ± 0.07 | > 1250 | > 1250 | 32.7 ± 0.36 | 7.53 ± 0.08 | 44.2 ± 0.94 | 37.6 ± 1.26 | 60.1 ± 2.41 | > 320
N#Cc1cn2ncsc2nc1=O [Compound 3, 6-cyano-7-oxo-7H-[1,3,4]thiadiazolo[3,2-a]pyrimidine] | 0.281 ± 0.22 | > 1250 | > 1250 | 87.5 ± 2.35 | 78 ± 1.37 | 92.8 ± 3.48 | 82.3 ± 2.19 | 7.82 ± 1.33 | 264 to 265
CC1=C(C(=O)c2ccccc2)C2C(=C(N)O1)C(=O)N=C1SC=NN12 (stereo not shown) [Compound 8b, 6-Amino-9-benzoyl-8-methyl-5H,9aH-pyrano[3,4-e][1,3,4]thiadiazolo[3,2-a]pyrimidin-5-one] | 0.066 ± 0.05 | 156 (≈ 0.458 mM) | 1250 (≈ 3.67 mM) | 14.7 ± 0.43 | 14.7 ± 0.16 | 30.6 ± 0.57 | 21.62 ± 0.14 | 42.8 ± 1.06 | 239 to 241
CC(=O)C1=C(C)OC(N)=C2C(=O)N=C3SC=NN3C12 (stereo not shown) [Compound 8a, 9-Acetyl-6-amino-8-methyl-5H,9aH-pyrano[3,4-e][1,3,4]thiadiazolo[3,2-a]pyrimidin-5-one] | 0.078 ± 0.13 | 312 (≈ 1.12 mM) | > 1250 | 22.61 ± 0.21 | 33.42 ± 0.23 | 34.4 ± 0.64 | 37.12 ± 0.23 | 27.5 ± 0.6 | 
N#Cc1c(N)nc(N)c2c(=O)nc3scnn3c12 [Compound 6, 6,8-Diamino-9-cyano-5-oxo-5H-pyrido[3,4-e][1,3,4]thiadiazolo[3,2-a]pyrimidine] | 0.135 ± 0.14 | > 1250 | > 1250 | 57.6 ± 1.72 | 49.6 ± 1.25 | 66.3 ± 2.49 | 62.2 ± 1.07 | 14.1 ± 0.36 | 302 to 303
Nc1c2c(=O)nc3scnn3c2nc2nncn12 [Compound 12, 6-Amino-5H-[1,2,4]triazolo[4′,3′:1,2]pyrimido[5,4-e][1,3,4]thiadiazolo[3,2-a]pyrimidin-5-one] | 0.107 ± 0.08 | > 1250 | > 1250 | 34.1 ± 0.97 | 36.92 ± 0.29 | 47.4 ± 0.89 | 44.3 ± 1.35 | 17.7 ± 0.71 | 290 to 291
Cc1cc2nc3c(c(N)n2n1)c(=O)nc1scnn13 [Compound 13, 6-Amino-9-methyl-5H-pyrazolo[1′,5′:1,2]pyrimido[5,4-e][1,3,4]thiadiazolo[3,2-a]pyrimidin-5-one] | 0.128 ± 0.11 | 1250 (≈ 4.57 mM) | > 1250 | 30.2 ± 0.59 | 57.6 ± 1.4 | 35.6 ± 0.88 | 28.6 ± 0.41 | 44.4 ± 1.24 | 304 to 306
Cc1n[nH]c2c1C1C(=C(N)O2)C(=O)N=C2SC=NN21 (stereo not shown) [Compound 10a, 6-Amino-10-methyl-8,10b-dihydro-5H-pyrazolo[4′,3′:5,6]pyrano[3,4-e][1,3,4]thiadiazolo[3,2-a]pyrimidin-5-one] | 0.098 ± 0.07 | 625 (≈ 2.26 mM) | > 1250 | 34 ± 0.46 | 24.2 ± 0.52 | 40.11 ± 0.36 | 42 ± 1.24 | 23.3 ± 0.6 | 
Nc1nn(-c2ccccc2)c2c1c(=O)nc1scnn12 [Compound 5, 3-Amino-1-phenylpyrazolo[4,3-e][1,3,4]thiadiazolo[3,2-a]pyrimidin-4(1H)-one] | 0.146 ± 0.16 | 1250 (≈ 4.4 mM) | > 1250 | 61.2 ± 1.51 | 54.8 ± 1.48 | 61.8 ± 1.68 | 19.2 ± 0.52 | 10.9 ± 0.83 | 254 to 255
CCOC(=O)c1c(N)nc(N)c2c(=O)nc3scnn3c12 [Compound 7, Ethyl 6,8-diamino-5-oxo-5H-pyrido[3,4-e][1,3,4]thiadiazolo[3,2-a]pyrimidine-9-carboxylate] | 0.132 ± 0.19 | > 1250 | > 1250 | 34.2 ± 0.93 | 39.8 ± 0.68 | 61.8 ± 1.35 | 36.73 ± 0.17 | 43.8 ± 0.52 | 278 to 280
